The text below walks through data of patent publication US20160052936A1, “SPIROINDOLINE DERIVATIVES FOR USE AS GONADOTROPIN-RELEASING HORMONE RECEPTOR ANTAGONISTS” (BAYER PHARMA AKTIENGESELLSCHAFT, priority 2013, published 2016).

Where only a bound is given, the exact number is not on record here.

This assay concerns the target T1, human GnRH receptor (Homo sapiens, UniProt P30968).
T1 construct: host or cells: CHO cells stably expressing human GnRH receptor (line established by Prof. Thomas Gudermann)
T1 sequence (P30968 1-328): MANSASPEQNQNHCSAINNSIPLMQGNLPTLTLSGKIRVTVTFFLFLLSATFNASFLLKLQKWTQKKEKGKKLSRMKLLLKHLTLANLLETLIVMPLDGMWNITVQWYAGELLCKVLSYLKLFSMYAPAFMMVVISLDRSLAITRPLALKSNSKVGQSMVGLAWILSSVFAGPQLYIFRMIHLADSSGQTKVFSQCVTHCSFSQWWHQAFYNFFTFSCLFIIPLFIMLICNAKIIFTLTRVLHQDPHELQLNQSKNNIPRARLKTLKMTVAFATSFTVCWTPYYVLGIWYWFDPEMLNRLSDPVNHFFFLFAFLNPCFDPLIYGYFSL
As to the kind of experiment: IP-One HTRF assay with buserelin stimulation. It is filed as cell-based. To be noted: CHO cells stably expressing human GnRH receptor; buserelin at EC80; read-out: Potency in IP-One HTRF assay with buserelin (at EC80) stimulation, given as IC50. The text has this: By using homogenous time-resolved fluorescence resonance energy transfer (HTRF), the generation of one component of the GnRH-R signalling cascade can be measured. After stimulation of CHO cells stably expressing human GnRH receptor (established by Prof. Thomas Gudermann, currently University of Marburg, Germany; supplied as frozen cell aliquots by Cell Culture Services, Hamburg, Germany) with the EC80 of the GnRH agonist buserelin, Gq protein-coupled receptor signalling cascade is activated resulting in PLC-dependent cleavage of PIP2 to Inositol-1,4,5-triphosphate (IP3) and Diacylglycerol. The second messenger IP3 is degraded intracellularly to myo-inositol. Inhibition of the final degradation step from Inositol-1-phosphate (IP1) to myo-inositol by addition of lithium chloride leads to accumulation of IP1 in the cells. In cell lysates, IP1 can be detected via an antibody-based HTRF detection technology, where IP1 can displace the FRET acceptor IP1-d2 from binding by Terbium-labelled anti-IP1 antibody as donor resulting in a signal decrease. Compounds were tested for their capability of inhibiting GnRH-R activation by buserelin. For all IP-One HTRF® assays reagents of Cisbio Bioassays (IP-One Tb Jumbo kit, #62IPAPEJ; Cisbio Bioassays, Bagnols sur Cèze Cedex, France) were used.
For the assay, frozen cell aliquots were thawed and a cell suspension (3.33×10^6 cells/mL) containing IP1-d2 (dilution 1:40) was prepared and incubated at 37° C. After 1 h 3 μl of the cell suspension were added to 50 nl of a 100-fold concentrated solution of the test compound in DMSO pre-dispensed in a well of a white low-volume 384-well microtiter plate (Greiner Bio-One, Frickenhausen, Germany). […] Plates were incubated for 1 h at 37° C. and 5% carbon dioxide before the cells were lysed by adding 3 μl Terbium-labelled anti-IP1 antibody (1:40) diluted in Conjugate & Lysis buffer as supplied with the kit. After an incubation for 1 h at 22° C. to enable complete cell lysis and antibody binding to free IP1 or IP1-d2, plates were measured in an HTRF reader, e.g. a RUBYstar, PHERAstar (both BMG Labtechnologies, Offenburg, Germany) or a Viewlux (PerkinElmer LAS, Rodgau-Jügesheim, Germany).
From the fluorescence emissions at 665 nm (FRET) and at 620 nm (background signal of Terbium-antibody), the ratio (emission at 665 nm divided by emission at 620 nm) was calculated and the data were normalized (reaction without test compound=0% inhibition; all other assay components except agonist=100% inhibition). On the same microtiter plate, compounds were tested at 10 different concentrations in the range of 20 μM to 1 nM (20 μM, 6.7 μM, 2.2 μM, 0.74 μM, 0.25 μM, 82 nM, 27 nM, 9.2 nM, 3.1 nM and 1 nM; dilution series prepared before the assay at the level of the 100-fold conc. stock solutions by serial 1:3 dilutions in 100% DMSO) in duplicate values for each concentration. By using an in-house software, the IC50 values were calculated by a 4 parameter fit.
Within the meaning of the present invention the antagonist activity is reflected by the ability of a compound of the invention to antagonize human GnRH receptor stimulation in IP-One HTRF® assay at least three times the standard deviation over the background level.
Consider `N#Cc1cccc(S(=O)(=O)N2c3ccc(C(=O)NCc4ncc(C(F)(F)F)cc4Cl)cc3C3(CCS(=O)(=O)CC3)C2C2CC2)c1` (racemic) [Example 10, N-{[3-chloro-5-(trifluoromethyl)pyridin-2-yl]methyl}-1-[(3-cyanophenyl)sulfonyl]-2-cyclopropyl-1,2,2′,3′,5′,6′-hexahydrospiro[indole-3,4′-thiopyran]-5-carboxamide 1′,1′-dioxide], for which the IC50 was found to be 0.029 µM.
Then `N#Cc1cccc(S(=O)(=O)N2c3ccc(C(=O)NCc4ncc(C(F)(F)F)cc4F)cc3C3(CCS(=O)(=O)CC3)C2C2CC2)c1` (racemic) [Example 9, 1-[(3-cyanophenyl)sulfonyl]-2-cyclopropyl-N-{[3-fluoro-5-(trifluoromethyl)pyridin-2-yl]methyl}-1,2,2′,3′,5′,6′-hexahydrospiro[indole-3,4′-thiopyran]-5-carboxamide 1′,1′-dioxide], with 0.311 µM; and `O=C(NCc1ncc(C(F)(F)F)cc1F)c1ccc2c(c1)C1(CCS(=O)(=O)CC1)C(C1CC1)N2S(=O)(=O)c1ccc(OC(F)F)cc1` (racemic) [Example 15, 2-cyclopropyl-1-{[4-(difluoromethoxy)phenyl]sulfonyl}-N-{[3-fluoro-5-(trifluoromethyl)pyridin-2-yl]methyl}-1,2,2′,3′,5′,6′-hexahydrospiro[indole-3,4′-thiopyran]-5-carboxamide 1′,1′-dioxide], with 0.112 µM; and `O=C(NCc1ncc(C(F)(F)F)cc1Cl)c1ccc2c(c1)C1(CCS(=O)(=O)CC1)C(C1CC1)N2S(=O)(=O)c1ccc(F)cc1` (racemic) [Example 3, N-{[3-chloro-5-(trifluoromethyl)pyridin-2-yl]methyl}-2-cyclopropyl-1-[(4-fluorophenyl)sulfonyl]-1,2,2′,3′,5′,6′-hexahydrospiro[indole-3,4′-thiopyran]-5-carboxamide 1′,1′-dioxide], with 0.053 µM.
For `N#Cc1cccc(S(=O)(=O)N2c3ccc(C(=O)NCc4ncc(C(F)(F)F)cc4Cl)cc3C3(CCS(=O)(=O)CC3)[C@H]2C2CC2)c1` (single isomer, unassigned) [Example 10.2], the half-inhibitory concentration (IC50) was found to be 1.97 µM.
With `O=C(NCc1ncc(C(F)(F)F)cc1Cl)c1ccc2c(c1)C1(CCS(=O)(=O)CC1)C(C1CC1)N2S(=O)(=O)c1ccc(Cl)cc1` (racemic) [Example 19, 1-[(4-chlorophenyl)sulfonyl]-N-{[3-chloro-5-(trifluoromethyl)pyridin-2-yl]methyl}-2-cyclopropyl-1,2,2′,3′,5′,6′-hexahydrospiro[indole-3,4′-thiopyran]-5-carboxamide 1′,1′-dioxide], the IC50 was 0.031 µM.
The result for `O=C(NCc1ncc(C(F)(F)F)cc1F)c1ccc2c(c1)C1(CCS(=O)(=O)CC1)C(C1CC1)N2S(=O)(=O)c1cccc(OC(F)F)c1` (racemic) [Example 13, 2-cyclopropyl-1-{[3-(difluoromethoxy)phenyl]sulfonyl}-N-{[3-fluoro-5-(trifluoromethyl)pyridin-2-yl]methyl}-1,2,2′,3′,5′,6′-hexahydrospiro[indole-3,4′-thiopyran]-5-carboxamide 1′,1′-dioxide] reads 0.423 µM; that for `O=C(NCc1ncc(C(F)(F)F)cc1F)c1ccc2c(c1)C1(CCS(=O)(=O)CC1)C(C1CC1)N2S(=O)(=O)c1cccc(OC(F)(F)F)c1` (racemic) [Example 11, 2-cyclopropyl-N-{[3-fluoro-5-(trifluoromethyl)pyridin-2-yl]methyl}-1-{[3-(trifluoromethoxy)phenyl]sulfonyl}-1,2,2′,3′,5′,6′-hexahydrospiro[indole-3,4′-thiopyran]-5-carboxamide 1′,1′-dioxide], 0.76 µM.
Then `N#Cc1ccc(S(=O)(=O)N2c3ccc(C(=O)NCc4ncc(C(F)(F)F)cc4Cl)cc3C3(CCS(=O)(=O)CC3)[C@H]2C2CC2)cc1` (single isomer, unassigned) [Example 8.2], with 3.56 µM.
The result for `Cc1cnc(CNC(=O)c2ccc3c(c2)C2(CCS(=O)(=O)CC2)C(C2CC2)N3S(=O)(=O)c2ccc(F)cc2)c(C(F)(F)F)c1` (racemic) [Example 5, 2-cyclopropyl-1-[(4-fluorophenyl)sulfonyl]-N-{[5-methyl-3-(trifluoromethyl)pyridin-2-yl]methyl}-1,2,2′,3′,5′,6′-hexahydrospiro[indole-3,4′-thiopyran]-5-carboxamide 1′,1′-dioxide] reads 0.864 µM.
Regarding `COc1cccc(S(=O)(=O)N2c3ccc(C(=O)NCc4ncc(C(F)(F)F)cc4F)cc3C3(CCS(=O)(=O)CC3)C2C2CC2)c1` (racemic) [Example 6, 2-cyclopropyl-N-{[3-fluoro-5-(trifluoromethyl)pyridin-2-yl]methyl}-1-[(3-methoxyphenyl)sulfonyl]-1,2,2′,3′,5′,6′-hexahydrospiro[indole-3,4′-thiopyran]-5-carboxamide 1′,1′-dioxide], the concentration for half-maximal inhibition (IC50) amounted to 0.231 µM.
The result for `O=C(NCc1ncc(Cl)cc1C(F)(F)F)c1ccc2c(c1)C1(CCS(=O)(=O)CC1)C(C1CC1)N2S(=O)(=O)c1ccc(F)cc1` (racemic) [Example 4, N-{[5-chloro-3-(trifluoromethyl)pyridin-2-yl]methyl}-2-cyclopropyl-1-[(4-fluorophenyl)sulfonyl]-1,2,2′,3′,5′,6′-hexahydrospiro[indole-3,4′-thiopyran]-5-carboxamide 1′,1′-dioxide] reads 0.069 µM; that for `NC(=O)c1ccc(S(=O)(=O)N2c3ccc(C(=O)NCc4ncc(C(F)(F)F)cc4Cl)cc3C3(CCS(=O)(=O)CC3)C2C2CC2)cc1` (single isomer, unassigned) [Example 17.1], more than 20 µM; that for `O=C(NCc1ncc(C(F)(F)F)cc1F)c1ccc2c(c1)C1(CCS(=O)(=O)CC1)C(C1CC1)N2S(=O)(=O)c1ccc(Cl)cc1` (racemic) [Example 18, 1-[(4-chlorophenyl)sulfonyl]-2-cyclopropyl-N-{[3-fluoro-5-(trifluoromethyl)pyridin-2-yl]methyl}-1,2,2′,3′,5′,6′-hexahydrospiro[indole-3,4′-thiopyran]-5-carboxamide 1′,1′-dioxide], 0.065 µM.
